Measured values: PubChem BioAssay AID1963837 (Molecular Pharmacology Branch, DTP, NCI, 2024)

Test system: 843126-344-R-J1-PDC complex spheroid viability
Experiment: Anticancer human tumor 843126-344-R-J1-PDC patient-derived melanoma cell line growth inhibition [POLQ]
Conditions: for IC50: curve of first compound; for viability, T/C: stronger effect = lower value
Method in brief: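 Three-cell-type spheroids modelling solid tumor plus stroma served as the readout system; POL inhibitors were tested individually and in combination, concentration ranges set by clinical Cmax where known.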
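Wherever viability, T/C is given: spheroids exposed to drugs for seven days before readout.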

Structure (SMILES): CNCc1ccc(-c2[nH]c3cc(F)cc4c3c2CCNC4=O)cc1 + COC1C(OC(N)=O)C(O)C(Oc2ccc3c(O)c(NC(=O)c4ccc(O)c(CC=C(C)C)c4)c(=O)oc3c2C)OC1(C)C
- IC50 (second compound 0.0316 µM): > 10 µM
- IC50 (second compound 0.1 µM): > 10 µM
- IC50 (second compound 0.316 µM): > 10 µM
- IC50 (second compound 1 µM): > 10 µM
- IC50 (second compound 3.16 µM): > 10 µM
- IC50 (second compound 10 µM): > 10 µM
- viability, T/C (second compound 0.0316 µM, first compound 0.0316 µM): 84.8%
- viability, T/C (second compound 0.0316 µM, first compound 0.1 µM): 94%
- viability, T/C (second compound 0.0316 µM, first compound 0.316 µM): 98.3%
- viability, T/C (second compound 0.0316 µM, first compound 1 µM): 92.3%
- viability, T/C (second compound 0.0316 µM, first compound 3.16 µM): 86.8%
- viability, T/C (second compound 0.0316 µM, first compound 10 µM): 87%
- viability, T/C (second compound 0.1 µM, first compound 0.0316 µM): 88%
- viability, T/C (second compound 0.1 µM, first compound 0.1 µM): 102%
- viability, T/C (second compound 0.1 µM, first compound 0.316 µM): 115%
- viability, T/C (second compound 0.1 µM, first compound 1 µM): 94.3%
- viability, T/C (second compound 0.1 µM, first compound 3.16 µM): 99.7%
- viability, T/C (second compound 0.1 µM, first compound 10 µM): 87.1%
- viability, T/C (second compound 0.316 µM, first compound 0.0316 µM): 98.7%
- viability, T/C (second compound 0.316 µM, first compound 0.1 µM): 88.6%
- viability, T/C (second compound 0.316 µM, first compound 0.316 µM): 90.7%
- viability, T/C (second compound 0.316 µM, first compound 1 µM): 96.1%
- viability, T/C (second compound 0.316 µM, first compound 3.16 µM): 108%
- viability, T/C (second compound 0.316 µM, first compound 10 µM): 70.5%
- viability, T/C (second compound 1 µM, first compound 0.0316 µM): 109%
- viability, T/C (second compound 1 µM, first compound 0.1 µM): 98.6%
- viability, T/C (second compound 1 µM, first compound 0.316 µM): 97.8%
- viability, T/C (second compound 1 µM, first compound 1 µM): 95.8%
- viability, T/C (second compound 1 µM, first compound 3.16 µM): 90.5%
- viability, T/C (second compound 1 µM, first compound 10 µM): 74.6%
- viability, T/C (second compound 3.16 µM, first compound 0.0316 µM): 99.9%
- viability, T/C (second compound 3.16 µM, first compound 0.1 µM): 96.9%
- viability, T/C (second compound 3.16 µM, first compound 0.316 µM): 92%
- viability, T/C (second compound 3.16 µM, first compound 1 µM): 101%
- viability, T/C (second compound 3.16 µM, first compound 3.16 µM): 82.2%
- viability, T/C (second compound 3.16 µM, first compound 10 µM): 85.4%
- viability, T/C (second compound 10 µM, first compound 0.0316 µM): 78.6%
- viability, T/C (second compound 10 µM, first compound 0.1 µM): 97%
- viability, T/C (second compound 10 µM, first compound 0.316 µM): 81%
- viability, T/C (second compound 10 µM, first compound 1 µM): 100%
- viability, T/C (second compound 10 µM, first compound 3.16 µM): 85.9%
- viability, T/C (second compound 10 µM, first compound 10 µM): 100%

Structure (SMILES): CC(=O)O[C@H]1C(=O)[C@@]2(C)[C@H]([C@H](OC(=O)c3ccccc3)[C@]3(O)C[C@H](OC(=O)[C@H](O)[C@@H](NC(=O)c4ccccc4)c4ccccc4)C(C)=C1C3(C)C)[C@]1(OC(C)=O)CO[C@@H]1C[C@@H]2O + Nc1ccc(C#CCN(C(=O)Cc2ncc(C(F)(F)F)cc2C(F)(F)F)c2ccc(F)cc2)nn1
- IC50 (second compound 0.0316 µM): > 3 µM
- IC50 (second compound 0.1 µM): > 3 µM
- IC50 (second compound 0.316 µM): > 3 µM
- IC50 (second compound 1 µM): > 3 µM
- IC50 (second compound 3.16 µM): > 3 µM
- IC50 (second compound 10 µM): > 3 µM
- viability, T/C (second compound 0.0316 µM, first compound 0.00949 µM): 65.6%
- viability, T/C (second compound 0.0316 µM, first compound 0.03 µM): 58.7%
- viability, T/C (second compound 0.0316 µM, first compound 0.0949 µM): 65%
- viability, T/C (second compound 0.0316 µM, first compound 0.3 µM): 65.8%
- viability, T/C (second compound 0.0316 µM, first compound 0.949 µM): 68.5%
- viability, T/C (second compound 0.0316 µM, first compound 3 µM): 69.6%
- viability, T/C (second compound 0.1 µM, first compound 0.00949 µM): 65.6%
- viability, T/C (second compound 0.1 µM, first compound 0.03 µM): 53.5%
- viability, T/C (second compound 0.1 µM, first compound 0.0949 µM): 56.7%
- viability, T/C (second compound 0.1 µM, first compound 0.3 µM): 61.5%
- viability, T/C (second compound 0.1 µM, first compound 0.949 µM): 78.6%
- viability, T/C (second compound 0.1 µM, first compound 3 µM): 61.2%
- viability, T/C (second compound 0.316 µM, first compound 0.00949 µM): 68.1%
- viability, T/C (second compound 0.316 µM, first compound 0.03 µM): 53.4%
- viability, T/C (second compound 0.316 µM, first compound 0.0949 µM): 70.7%
- viability, T/C (second compound 0.316 µM, first compound 0.3 µM): 61.6%
- viability, T/C (second compound 0.316 µM, first compound 0.949 µM): 64.8%
- viability, T/C (second compound 0.316 µM, first compound 3 µM): 73.5%
- viability, T/C (second compound 1 µM, first compound 0.00949 µM): 67.2%
- viability, T/C (second compound 1 µM, first compound 0.03 µM): 57.1%
- viability, T/C (second compound 1 µM, first compound 0.0949 µM): 62.2%
- viability, T/C (second compound 1 µM, first compound 0.3 µM): 55.6%
- viability, T/C (second compound 1 µM, first compound 0.949 µM): 62.8%
- viability, T/C (second compound 1 µM, first compound 3 µM): 62.7%
- viability, T/C (second compound 3.16 µM, first compound 0.00949 µM): 69.3%
- viability, T/C (second compound 3.16 µM, first compound 0.03 µM): 62.1%
- viability, T/C (second compound 3.16 µM, first compound 0.0949 µM): 54.9%
- viability, T/C (second compound 3.16 µM, first compound 0.3 µM): 59.8%
- viability, T/C (second compound 3.16 µM, first compound 0.949 µM): 63.7%
- viability, T/C (second compound 3.16 µM, first compound 3 µM): 61.5%
- viability, T/C (second compound 10 µM, first compound 0.00949 µM): 65.5%
- viability, T/C (second compound 10 µM, first compound 0.03 µM): 57.6%
- viability, T/C (second compound 10 µM, first compound 0.0949 µM): 61.5%
- viability, T/C (second compound 10 µM, first compound 0.3 µM): 61.3%
- viability, T/C (second compound 10 µM, first compound 0.949 µM): 60.2%
- viability, T/C (second compound 10 µM, first compound 3 µM): 61.8%
